Key:
[1] = test system: H460 non-small cell lung cancer; assay: Cytotoxicity test of human tumor cell line in vitro (CTG, 72 hours); type: cell-based; conditions: Homo sapiens, NCI-H460; H460, 72 hours exposure
Procedure: IC50 values were obtained by the following methods. The cancer cells were exposed to various concentrations of compounds for 72 hours. Following by washing steps, fresh medium was added to allow the growth of the cancer cells. The cancer cells were stained to obtain cell viability. Then, comparisons were made with the medium-only control.
Specifically, the exponentially growing cells were seeded in 96-well plates at a density of 2×10^3 cells/well, and 100 μL/well. The cells were incubated for 24 hours at 37° C., in 5% CO2, in 95% air, and 100% relative humidity. Next, 99 μL of culture medium was added. The compounds were dissolved in 100% DMSO at 200 times the desired final test concentration. Upon addition of compounds, the compounds were further diluted to 4 times the desired final concentration with a complete medium. Aliquots of 1 μL of compounds at specific concentration were added to the micro-wells containing 199 μL of medium to obtain the final compound concentrations as reported. After the compounds were added, the plates were incubated for an addition 72 hours at 37° C., in 5% CO2, in 95% air, and 100% relative humidity.
The plates to be test containing the cells were equilibrated at room temperature for 30 minutes, and 100 μL of medium per well was discarded. 100 μL of CTG reagent (CelltiterGlo Kit) was added to each well. The plates were placed in a fast-shaker to shake for 2 minutes, and placed at room temperature for 30 minutes in the dark. Chemoluminescence signal values were read with Envision instrument.

H460 = assay: Cytotoxicity on cell lines of different species: H460; type: cell-based; conditions: NCI-H460, 72 h; H460, Human; exposure time: 3 days
AA8 = assay: Cytotoxicity on cell lines of different species: AA8; type: cell-based
[2] = Hepatomicrosome stability, dog; conditions: for Remaining percentage after 30 minutes: Dog, 2 μM
Procedure: (§1) 1a) With NADPH: 10 μL of 20 mg/mL of hepatomicrosome and 40 μL of 10 mM of NADPH were added to medium. The final concentrations of hepatomicrosome and NADPH were 0.5 mg/mL and 1 mM, respectively.
(§2) 1b) Without NADPH: 10 μL of 20 mg/mL hepatomicrosome and 40 μL of ultra-pure H2O were added to medium. The final concentration of hepatomicrosome was 0.5 mg/mL.
(§3) 3) 3) Aliquots of 50 μL from the reaction solutions at 0 minute and 30 minutes were taken. The reaction solutions were stopped by adding 4 volumes of cold acetonitrile and 4 internal standards (IS internal standard, 100 nM of Alprazolam, 200 nM of caffeine, 200 nM of Labetalol, and 2 μM of Ketoprofen) to stop the reaction solution. The samples were centrifuged at 3,220 g for 40 minutes. Aliquots of 100 μL of the supernatants were mixed with 100 μL of ultra-pure H2O. Then, the mixtures were used for LC-MS/MS analysis. All experiments were performed in duplicate. The test results were as follow.

[3] = Hepatomicrosome stability, rat; conditions: for Remaining percentage after 30 minutes: Rat, 2 μM
Procedure: as §1, §2, §3

## O=[N+]([O-])c1ccc(C(OP(=O)(N2CC2)N2CC2)C(F)(F)F)c2ccccc12 (stereo not shown) [Compound 01]
[1]
  IC50: 128 nM
H460
  IC50: 100 nM
AA8; CHO-AA8, 72 h, AA8, Rat, exposure time: 3 days
  IC50: 11000 nM
AA8; IC50 AA8 / IC50 H460
  Multiple: Rat/Human: 110
[2]; with NADPH
  Remaining percentage after 30 minutes: 31.16%
[2]; without NADPH
  Remaining percentage after 30 minutes: 101.62%
[2]; dog
  Stability in hepatomicrosomes (conclusion): unstable
[3]; with NADPH
  Remaining percentage after 30 minutes: 71.05%
[3]; without NADPH
  Remaining percentage after 30 minutes: 111.15%
[3]; rat
  Stability in hepatomicrosomes (conclusion): unstable

From US20230026163A1, “ANTICANCER COMPOUND AND MEDICAL USE THEREOF” (ASCENTAWITS PHARMACEUTICALS, LTD., priority 2019, published 2023)
